In patent US20190015423A1, “REGULATION OF GENE EXPRESSION BY MODULATING PRIMARY CILIA LENGTH” (THE TRUSTEES OF COLUMBIA UNIVERSITY IN THE CITY OF NEW YORK, priority 2016, published 2019):
Entries after “also recorded” stand apart in the source; their conditions may differ. Where a name gives a salt, the structure may show the parent alone.

Assays:
[1] = test system: Ovariectomized (OVX) mice; test: Load-induced bone formation in ovariectomized (OVX) osteoporotic mice; assay type: in vivo; conditions: fenoldopam 20 mg/kg 7 days, compressive ulnar load
Method: On the final three days of drug or control injection, animals were also subjected to compressive ulnar load at a peak load of 3 N using a 2 Hz sine wave for 120 cycles, as previously described ([…]. et al. PLoS One 7, (2012); Lee, K. L. et al. FASEB J. 28, 1157-1165 (2014)). Contralateral limbs served as a non-loaded control. 2 days following load, mice were treated with 10 mg/kg calcein (Sigma), and 4 days later 70 mg/kg alizarin (Sigma), with mice being sacrificed 6 days later. Dynamic histomorphometry was performed as previously described, measuring the amount and separation of calcein and alizarin labels to quantify mineralizing surface (rMS/BS), mineral apposition rate (rMAR), and bone formation rate (rBFR/BS) relative to non-loaded controls ([…]. et al. PLoS One 7, (2012); Lee, K. L. et al. FASEB J. 28, 1157-1165 (2014)). Left and right ulnae were dissected and preserved in ethanol. Samples were then infiltrated with methyl methacrylate, and embedded in methyl methacrylate and benzoyl peroxide. Transverse sections of the ulnar midshaft were imaged on a laser scanning confocal microscope (Olympus Fluoview FV1000). Measurements of outer bone perimeter (OP), single label perimeter (SL), double label perimeter (DL), and double label area (DA) were made in ImageJ. The mineralizing surface relative to outer bone surface (MS/BS), mineral apposition rate (MAR), and bone formation rate (BFS/BS) were calculated as: Relative measurements-rMS/BS, rMAR, rBFR/BS-were determined by subtracting non-loaded from loaded ulnae to display differences due to mechanical load. Ovariectomized (OVX) and Sham animals were purchased directly from Jackson Laboratories, with surgery performed at 12 weeks old. […] Dynamic histomorphometry was only performed on OVX animals, while Sham animals were used to confirm osteoporotic phenotype based on μCT analysis.

[2] = test system: MLO-Y4 osteocytes; test: Primary cilia length and incidence by immunocytochemistry (acetylated α-tubulin); assay type: cell-based; conditions: for cilia incidence in untransfected (healthy, ciliated) cells: fenoldopam; for cilia incidence in AC6 siRNA treated cells / recovering cilia length in AC6 siRNA treated cells: fenoldopam on AC6 siRNA treated cells
Method: MLO-Y4 osteocytes were cultured on collagen-coated dishes in MEMα (Life Tech) supplemented with 5% fetal bovine serum, 5% calf serum, and 1% penicillin/streptomycin at 37° C. and 5% CO2. […] These agents, or their vehicle control, were applied to cells for 16 h prior to experimentation. MTT, (methylthiazolyldiphenyl-tetrazolium bromide) assay (Sigma) was performed according to manufacturer's protocol to assess cell viability during drug treatments. Phase contrast microscopy with an Olympus CKX41 inverted microscope and 40× objective was used to assess cell morphology.
For primary cilia imaging and analysis, cells cultured on collagen I-coated glass were fixed in 10% formalin and treated with anti-acetylated α-tubulin primary antibody, 1:1, from a C3B9 hybridoma cell line (Sigma). Cilia were visualised with Alexa-Fluor 488 secondary antibody, 1:1000 (Life Technologies) and imaged with a 100× oil objective on an Olympus Fluoview FV1000 confocal microscope. Nuclei were stained with DAPI (Life Technologies). Cilia length was analyzed using Image J software.
Gene silencing was performed by siRNA mediated knockdown and compared to scramble siRNA control (Life Technologies). […]

[3] = fenoldopam on IFT88 siRNA treated cells

Oc1ccc(C2CNCCc3c2cc(O)c(O)c3Cl)cc1 (stereo not drawn) [fenoldopam, Fenoldopam mesylate]
bone formation rate (rBFR/BS) compared to vehicle control [1]: increased | mineral apposition rate (rMAR) compared to vehicle control [1]: increased | mineralizing surface (rMS/BS) compared to vehicle control [1]: increased | primary cilia length compared to vehicle control (in words) ([2]; 10 μM fenoldopam, 16 h): significantly increases | primary cilia length compared to vehicle control (in words) ([2]; 10 μM fenoldopam, 16 h, listed as Fenoldopam): increased | increases in cilia length compared to vehicle control ([2]; 10 μM fenoldopam, 16 h, mean±SEM): 26%±7% | cilia incidence in untransfected (healthy, ciliated) cells [2]: no significant effect | cilia incidence in AC6 siRNA treated cells [2]: Neither AC6 siRNA nor fenoldopam alter cilia incidence | recovering cilia length in AC6 siRNA treated cells [2]: not recovered | cilia incidence in AC6 siRNA treated cells ([2]; listed as Fenoldopam): no effect | recovering cilia length in AC6 siRNA treated cells ([2]; listed as Fenoldopam): no effect | cilia incidence in IFT88 siRNA treated cells [2, 3]: significantly recovering; also recorded: recovered | cilia length / formation in IFT88 siRNA treated cells [2, 3]: noticeably recovered; also recorded: appears to recover cilia length | cilia length / formation in IFT88 siRNA treated cells ([2]; fenoldopam on IFT88 siRNA treated cells, listed as Fenoldopam): recovers primary cilia formation | cilia incidence in untransfected (healthy, ciliated) cells ([2]; listed as Fenoldopam): no effect
